Reference: patent US11098010B2 (priority 2017, dated 2021)

The compounds below were run on HBV rcDNA in HepDE19 cells (assay: HepDE19 assay with bDNA quantitation of HBV rcDNA). Details: HepDE19 cells, inhibition of rcDNA formation, 7 day incubation, top concentration 25 μM; read-out: DE-19 bDNA EC50.
Type: cell-based, hepatitis B virus (HBV)
Experimental: HepDE19 Assay with bDNA Quantitation of HBV rcDNA:
HepDE19 cell culture system is a HepG2 (human hepatocarcinoma) derived cell line that supports HBV DNA replication and cccDNA formation in a tetracycline (Tet)-regulated manner and produces HBV rcDNA and a detectable reporter molecule dependent on the production and maintenance of cccDNA (Guo, et al., 2007, J. Virol. 81:12472-12484).
HepDE19 (50,000 cells/well) were plated in 96-well collagen-coated tissue-culture treated microtiter plates in DMEM/F12 medium supplemented with 10% fetal bovine serum, 1% penicillin-streptomycin and 1 μg/mL tetracycline and incubated in a humidified incubator at 37° C. and 5% CO2 overnight. Next day, the cells were switched to fresh medium without tetracycline and incubated for 4 hours at 37° C. and 5% CO2. The cells were treated with fresh Tet-free medium with compounds at concentrations starting at 25 μM and a serial, ½ log, 8-point, titration series in duplicate. The final DMSO concentration in the assay was 0.5%. The plates were incubated for 7 days in a humidified incubator at 37° C. and 5% CO2. Following a 7 day-incubation, the level of rcDNA present in the inhibitor-treated wells was measured using a Quantigene 2.0 bDNA assay kit (Affymetrix, Santa Clara, Calif.) with HBV specific custom probe set and manufacturers instructions. Concurrently, the effect of compounds on cell viability was assessed using replicate plates, plated at a density of 5,000 cells/well and incubated for 4 days, to determine the ATP content as a measure of cell viability using the cell-titer glo reagent (CTG; Promega Corporation, Madison, Wis.) as per manufacturer's instructions. The plates were read using a Victor luminescence plate reader (PerkinElmer Model 1420 Multilabel counter) and the relative luminescence units (RLU) data generated from each well was calculated as % inhibition of the untreated control wells and analyzed using XL-Fit module in Microsoft Excel to determine EC50 and EC90 (bDNA) and CC50 (CTG) values using a 4-parameter curve fitting algorithm.
Representative compounds of the invention were tested for their abilities to inhibit formation of relaxed circular DNA (rcDNA) in a HepDE19 assay, as described elsewhere herein.
`O=C(NC1CSc2c(C(=O)Nc3ccc(F)c(Cl)c3)cccc21)OCc1ccccn1` (centres unmarked) [Compound 35, O-Pyridin-2-ylmethyl, N-(7-((3-chloro-4-fluorophenyl)carbamoyl)-2,3-dihydrobenzo[b]thiophen-3-yl) carbamate] showed an EC50 of 0.78 µM. `O=C(NC1CSc2c(C(=O)Nc3ccc(F)c(Cl)c3)cccc21)OCc1ccccn1` (centres unmarked) [Compound 36, O-Pyridin-2-ylmethyl, N-(7-((3-chloro-4-fluorophenyl)carbamoyl)-2,3-dihydrobenzo[b]thiophen-3-yl) carbamate] showed an EC50 greater than 25 µM.

Same assay, conditions: Hepatitis B virus, HepDE19, 168 h, HepDE19 cells, inhibition of rcDNA formation, 7 day incubation, top concentration 25 μM; read-out: DE-19 bDNA EC50
`O=C(N[C@H]1CCc2c(C(=O)Nc3ccc(F)c(Cl)c3)ccc(F)c21)OCc1ccccn1` [Compound 32, O-Pyridin-2-ylmethyl, N—(S)-(4-((3-chloro-4-fluorophenyl)carbamoyl)-7-fluoro-2,3-dihydro-1H-inden-1-yl) carbamate] gave an EC50 of 0.11 µM. With `CN1C(=O)CC[C@H]1COC(=O)N[C@H]1CCc2c(C(=O)Nc3ccc(F)c(Cl)c3)ccc(F)c21` [Compound 39] the EC50 was 0.6 µM. With `Cc1cc(NC(=O)c2ccc(F)c3c2CC[C@@H]3NC(=O)OCc2ccccn2)ccc1F` [Compound 40, O-Pyridin-2-ylmethyl, N—(S)-(7-fluoro-4-((4-fluoro-3-methylphenyl)carbamoyl)-2,3-dihydro-1H-inden-1-yl) carbamate] the EC50 was 0.62 µM. Compound `O=C(N[C@H]1CCc2c(C(=O)Nc3ccc(F)c(Cl)c3)ccc(F)c21)OCc1cn2ccccc2n1` [Compound 41, O-Imidazo[1,2-a]pyridin-2-ylmethyl, N—(S)-(4-((3-chloro-4-fluorophenyl)carbamoyl)-7-fluoro-2,3-dihydro-1H-inden-1-yl) carbamate] has an EC50 of 0.16 µM.

Same assay, conditions: Hepatitis B virus, HepDE19, 168 h, read-out: DE-19 bDNA EC50 (μM), HepDE19 cells, inhibition of rcDNA formation, 7 day incubation, top concentration 25 μM
With `COC(=O)NC1CSc2c(C(=O)Nc3ccc(F)c(Cl)c3)cccc21` (centres unmarked) [Compound 37, O-Methyl, N-(7-((3-chloro-4-fluorophenyl)carbamoyl)-2,3-dihydrobenzo[b]thiophen-3-yl) carbamate] the EC50 was 0.95 µM. `O=C(N[C@H]1CCc2c(C(=O)Nc3ccc(F)c(Cl)c3)ccc(F)c21)OCc1cccc(N2CCOCC2)n1` [Compound 42, O-(6-Morpholinopyridin-2-yl)methyl, N—(S)-(4-((3-chloro-4-fluorophenyl)carbamoyl)-7-fluoro-2,3-dihydro-1H-inden-1-yl) carbamate] gave an EC50 of 0.27 µM. In the case of `CN1C(=O)CC[C@@H]1COC(=O)N[C@H]1CCc2c(C(=O)Nc3ccc(F)c(Cl)c3)ccc(F)c21` [Compound 43], the EC50 is reported as 0.54 µM. `COc1cccc(COC(=O)N[C@H]2CCc3c(C(=O)Nc4ccc(F)c(Cl)c4)ccc(F)c32)n1` [Compound 44, O-(6-Methoxypyridin-2-yl)methyl, N—(S)-(4-((3-chloro-4-fluorophenyl)carbamoyl)-7-fluoro-2,3-dihydro-1H-inden-1-yl) carbamate] gave an EC50 of 0.38 µM. Compound `O=C(Nc1ccc(F)c(Cl)c1)c1ccc(F)c2c1CC[C@@H]2Nc1ncccn1` [Compound 45, (S)—N-(3-chloro-4-fluorophenyl)-7-fluoro-1-(pyrimidin-2-ylamino)-2,3-dihydro-1H-indene-4-carboxamide] has an EC50 of 0.25 µM. With `COC(=O)N[C@@H]1c2cccc(C(=O)Nc3ccc(F)c(Cl)c3)c2C[C@H]1O` [Compound 46, O-Methyl, N-((1R,2R)-4-((3-chloro-4-fluorophenyl)carbamoyl)-2-hydroxy-2,3-dihydro-1H-inden-1-yl) carbamate] the EC50 was 0.7 µM. Work on `CNC(=O)N[C@@H]1c2cccc(C(=O)Nc3ccc(F)c(Cl)c3)c2C[C@H]1O` [Compound 47, (1R,2R)—N-(3-Chloro-4-fluorophenyl)-2-hydroxy-1-(3-methylureido)-2,3-dihydro-1H-indene-4-carboxamide] yielded an EC50 of 11 µM. Work on `CN(C)c1cccc(COC(=O)N[C@H]2CCc3c(C(=O)Nc4ccc(F)c(Cl)c4)ccc(F)c32)n1` [Compound 48, O-(6-(Dimethylamino)pyridin-2-yl)methyl, N—(S)-(4-((3-chloro-4-fluorophenyl)carbamoyl)-7-fluoro-2,3-dihydro-1H-inden-1-yl) carbamate] yielded an EC50 of 0.16 µM.
